From article PMC8583042, “New Hybrid Compounds Combining Fragments of Usnic Acid and Thioether Are Inhibitors of Human Enzymes TDP1, TDP2 and PARP1” (International Journal of Molecular Sciences, 2021)
Read-outs that look alike come from different tables or passages of the source.

Assay: EZ4U colorimetric cytotoxicity test, HEK293A
Format: cell-based
Settings: human
From the text: The low intrinsic cytotoxicity of the additional drug component in the clinically used anticancer cocktails with traditional drugs is very important for treatment. This approach in chemotherapy can reduce the potential resulting toxic load on the body in the case of a combined action of these inhibitors on the activity of several targets. […] The effects of the tested compounds on cell survival are shown on Figure 4 and the CC50 values for three cell lines are shown in Table 1. The intrinsic cytotoxicity of a number of the studied compounds is quite high, namely, they have close IC50 values against the TDP1 and CC50 values on one or several studied cell lines. Most of the compounds generally were more toxic for the HEK293FT and HeLa cell lines than for the HEK293A cell line (Table 1 and Figure 4). The cytotoxicity of the three leader compounds, 7g, 10a, and 7h, was quite high. […] Compound 10b was one of the least toxic among the ten tested compounds.
Cytotoxicity of the compounds was examined against human cell lines HEK293A (human embryonic kidney)—WT, TDP1 deficient (Tdp1-/-), PARP1 deficient (PARP1-/-), and HeLa (cervical cancer) using an EZ4U colorimetric test (Biomedica, Vienna, Austria). The HEK293A cell line was obtained from Thermo Fisher Scientific (Waltham, MA, USA), and the HeLa cell line was obtained from the Russian Cell Culture Collection (RCCC) Institute of Cytology RAS, St. Petersburg, Russia. The cells were grown in DMEM/F12 medium (Gibco, Thermo Fisher Scientific, Waltham, MA, USA), with 1x GlutaMAX (Gibco, Thermo Fisher Scientific, Waltham, MA, USA), 50 IU/mL penicillin, 50 μg/mL streptomycin (MP Biomedicals), and in the presence of 10% fetal bovine serum (Biolot, Saint-Petersburg, Russia) in a 5% CO2 atmosphere. Cells were grown in the presence of 1% DMSO in the control wells. After the formation of a 30–50% monolayer, the tested compounds were added to the medium, and the cell culture was monitored for 3 days. The values were normalized to their own control in each case. At least three independent experiments were carried out. The 50% cytotoxic concentration (CC50) was defined as the compound concentration that reduced the cell viability by 50% when compared to the untreated controls. The compound concentration that caused 50% cell growth inhibition was determined using OriginPro 8.6.0 software (OriginLab, Northampton, MA, USA). The measurements were carried out in three independent experiments.

Q: For `CC(=O)C1=C(O)C=C2Oc3c(C(=O)C[S+]([O-])c4nc5ccccc5s4)c(O)c(C)c(O)c3[C@@]2(C)C1=O` (stereo partly drawn) [10a, (2R)-4-acetyl-10-[2-(1,3-benzothiazole-2-sulfinyl)acetyl]-5,11,13-trihydroxy-2,12-dimethyl-8-oxatricyclo[7.4.0.0^2,7]trideca-1(13),4,6,9,11-pentaen-3-one], which CC50 at 3 days (HEK293A cells, intrinsic cytotoxicity, 3 days, read-out: HEK293A CC50) is on record?
A: 20 ± 2 µM

Q: What about the CC50 at 3 days (wild-type HEK293A cells, HEK293 wild type, intrinsic cytotoxicity (Figure 6), read-out: CC50) of the same compound?
A: 15 to 20 µM
